Reference: patent publication US12539292B2, “BRM targeting compounds and associated methods of use” (Arvinas Operations, Inc., priority 2018, dated 2026)
Read-outs that look alike come from different tables or passages of the source.

Molecular target: T1, BRM (Homo sapiens, UniProt P51531)
T1 construct: In-Cell Western Screen of BRM Degradation in SW1573 Cells; endogenous in cells; host or cells: SW1573
Experiment: In-cell Western screen of BRM degradation in SW1573 cells (Dmax and DC50)
Type: cell-based
Conditions: BRM degradation, SW1573 cells; for DC50: read-out: DC50; for Dmax: read-out: Dmax (%) (% degraded)
Outline: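 After adhering overnight, cells received compound for 18-20 hours. They were then washed in cold DPBS, fixed with 4% PFA for 20 min and permeabilized for 30 min. Blocking and fluorescent secondary staining followed before imaging.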

[1] = when tested at the top concentration of between 0.3 and 10 μM
[2] = tested at the top concentration of between 0.3 and 10 μM

T1 sequence (P51531 whole entry): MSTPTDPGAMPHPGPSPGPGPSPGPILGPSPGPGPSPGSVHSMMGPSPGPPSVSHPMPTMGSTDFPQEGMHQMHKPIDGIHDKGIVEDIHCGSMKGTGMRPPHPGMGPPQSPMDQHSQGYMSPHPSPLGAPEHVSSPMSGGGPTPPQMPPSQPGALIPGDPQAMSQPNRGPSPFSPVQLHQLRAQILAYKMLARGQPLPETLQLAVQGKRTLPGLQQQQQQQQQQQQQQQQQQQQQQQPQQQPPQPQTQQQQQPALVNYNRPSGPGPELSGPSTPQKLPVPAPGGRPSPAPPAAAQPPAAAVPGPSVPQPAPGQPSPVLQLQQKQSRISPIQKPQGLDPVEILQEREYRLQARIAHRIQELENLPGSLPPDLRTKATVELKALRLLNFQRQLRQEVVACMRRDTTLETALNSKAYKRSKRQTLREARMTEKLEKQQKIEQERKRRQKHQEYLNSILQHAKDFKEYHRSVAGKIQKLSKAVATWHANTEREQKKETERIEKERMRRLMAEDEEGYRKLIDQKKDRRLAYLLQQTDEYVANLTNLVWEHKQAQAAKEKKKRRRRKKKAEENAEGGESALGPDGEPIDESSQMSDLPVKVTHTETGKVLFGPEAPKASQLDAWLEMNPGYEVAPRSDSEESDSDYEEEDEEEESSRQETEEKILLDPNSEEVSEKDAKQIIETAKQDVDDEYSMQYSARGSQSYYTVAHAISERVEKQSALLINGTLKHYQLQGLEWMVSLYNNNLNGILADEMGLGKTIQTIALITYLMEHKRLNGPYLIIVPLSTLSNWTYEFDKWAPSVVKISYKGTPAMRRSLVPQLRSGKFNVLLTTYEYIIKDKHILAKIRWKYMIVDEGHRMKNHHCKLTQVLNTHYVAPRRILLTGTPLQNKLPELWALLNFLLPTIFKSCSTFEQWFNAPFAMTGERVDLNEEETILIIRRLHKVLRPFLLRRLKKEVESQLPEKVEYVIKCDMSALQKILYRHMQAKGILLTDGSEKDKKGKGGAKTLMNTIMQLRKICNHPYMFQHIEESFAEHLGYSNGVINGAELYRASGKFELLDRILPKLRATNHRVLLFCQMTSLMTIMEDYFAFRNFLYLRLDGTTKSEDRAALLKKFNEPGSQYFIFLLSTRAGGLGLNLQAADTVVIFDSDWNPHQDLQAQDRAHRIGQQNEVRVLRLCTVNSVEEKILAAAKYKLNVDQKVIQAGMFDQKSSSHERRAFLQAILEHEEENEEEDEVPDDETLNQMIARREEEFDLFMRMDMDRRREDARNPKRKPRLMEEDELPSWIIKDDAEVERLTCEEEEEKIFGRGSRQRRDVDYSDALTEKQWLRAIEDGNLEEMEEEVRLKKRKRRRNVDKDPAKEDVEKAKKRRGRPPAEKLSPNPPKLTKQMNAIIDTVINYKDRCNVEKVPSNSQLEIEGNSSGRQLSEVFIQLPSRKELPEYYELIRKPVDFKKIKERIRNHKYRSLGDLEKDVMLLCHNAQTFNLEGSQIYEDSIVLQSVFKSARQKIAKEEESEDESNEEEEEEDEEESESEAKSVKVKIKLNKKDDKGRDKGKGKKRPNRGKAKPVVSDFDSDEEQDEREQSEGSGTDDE

Row | SMILES | DC50 | Dmax [1] | Dmax [2]
1 | Cc1ncsc1-c1ccc([C@H](C)NC(=O)[C@@H]2C[C@@H](O)CN2C(=O)[C@@H](c2cc(OCCN3C[C@@H]4C[C@H]3CN4CCOc3cc(N4C5CCC4CN(c4cc(-c6ccccc6O)nnc4N)C5)ccn3)no2)C(C)C)cc1 [compound 135, (2S,4R)-1-((2R)-2-(3-(2-((1S,4S)-5-(2-((4-(3-(3-amino-6-(2-hydroxyphenyl)pyridazin-4-yl)-3,8-diazabicyclo[3.2.1]octan-8-yl)pyridin-2-yl)oxy)ethyl)-2,5-diazabicyclo[2.2.1]heptan-2-yl)ethoxy)isoxazol-5-yl)-3-methylbutanoyl)-4-hydroxy-N-((S)-1-(4-(4-methylthiazol-5-yl)phenyl)ethyl)pyrrolidine-2-carboxamide] | < 2.5 nM | > 75% | 
2 | Cc1ncsc1-c1ccc([C@H](C)NC(=O)[C@@H]2C[C@@H](O)CN2C(=O)[C@@H](c2cc(OCCN3C[C@H]4C[C@@H]3CN4CCOc3cc(N4C5CCC4CN(c4cc(-c6ccccc6O)nnc4N)C5)ccn3)no2)C(C)C)cc1 [compound 136, (2S,4R)-1-((2R)-2-(3-(2-((1R,4R)-5-(2-((4-(3-(3-amino-6-(2-hydroxyphenyl)pyridazin-4-yl)-3,8-diazabicyclo[3.2.1]octan-8-yl)pyridin-2-yl)oxy)ethyl)-2,5-diazabicyclo[2.2.1]heptan-2-yl)ethoxy)isoxazol-5-yl)-3-methylbutanoyl)-4-hydroxy-N-((S)-1-(4-(4-methylthiazol-5-yl)phenyl)ethyl)pyrrolidine-2-carboxamide] | < 2.5 nM | > 75% | 
3 | Cc1ncsc1-c1ccc([C@H](C)NC(=O)[C@@H]2C[C@@H](O)CN2C(=O)[C@@H](c2cc(OCCN3CCN(CCOc4cc(N5C6CCC5CN(c5cc(-c7ccccc7O)nnc5N)C6)ccn4)[C@H](C)C3)no2)C(C)C)cc1 [compound 139, (2S,4R)-1-((2R)-2-(3-(2-((3R)-4-(2-((4-(3-(3-amino-6-(2-hydroxyphenyl)pyridazin-4-yl)-3,8-diazabicyclo[3.2.1]octan-8-yl)pyridin-2-yl)oxy)ethyl)-3-methylpiperazin-1-yl)ethoxy)isoxazol-5-yl)-3-methylbutanoyl)-4-hydroxy-N-((S)-1-(4-(4-methylthiazol-5-yl)phenyl)ethyl)pyrrolidine-2-carboxamide] | < 2.5 nM | > 75% | 
4 | Cc1ncsc1-c1ccc([C@H](C)NC(=O)[C@@H]2C[C@@H](O)CN2C(=O)[C@@H](c2cc(OCCN3CCN(CCOc4cc(N5C6CCC5CN(c5cc(-c7ccccc7O)nnc5N)C6)ccn4)[C@@H](C)C3)no2)C(C)C)cc1 [compound 140, (2S,4R)-1-((2R)-2-(3-(2-((3S)-4-(2-((4-(3-(3-amino-6-(2-hydroxyphenyl)pyridazin-4-yl)-3,8-diazabicyclo[3.2.1]octan-8-yl)pyridin-2-yl)oxy)ethyl)-3-methylpiperazin-1-yl)ethoxy)isoxazol-5-yl)-3-methylbutanoyl)-4-hydroxy-N-((S)-1-(4-(4-methylthiazol-5-yl)phenyl)ethyl)pyrrolidine-2-carboxamide] | < 2.5 nM | > 75% | 
5 | Cc1ncsc1-c1ccc([C@H](C)NC(=O)[C@@H]2C[C@@H](O)CN2C(=O)[C@@H](c2cc(OCCN3CCN(CCOc4cc(N5C6CCC5CN(c5cc(-c7ccccc7O)nnc5N)C6)ccn4)C[C@@H]3C)no2)C(C)C)cc1 [compound 141, (2S,4R)-1-((2R)-2-(3-(2-((2S)-4-(2-((4-(3-(3-amino-6-(2-hydroxyphenyl)pyridazin-4-yl)-3,8-diazabicyclo[3.2.1]octan-8-yl)pyridin-2-yl)oxy)ethyl)-2-methylpiperazin-1-yl)ethoxy)isoxazol-5-yl)-3-methylbutanoyl)-4-hydroxy-N-((S)-1-(4-(4-methylthiazol-5-yl)phenyl)ethyl)pyrrolidine-2-carboxamide] | < 2.5 nM | > 75% | 
6 | Cc1ncsc1-c1ccc([C@H](C)NC(=O)[C@@H]2C[C@@H](O)CN2C(=O)[C@@H](c2cc(OCCN3CCN(CCOc4cc(N5C6CCC5CN(c5cc(-c7ccccc7O)nnc5N)C6)ccn4)C[C@H]3C)no2)C(C)C)cc1 [compound 142, (2S,4R)-1-((2R)-2-(3-(2-((2R)-4-(2-((4-(3-(3-amino-6-(2-hydroxyphenyl)pyridazin-4-yl)-3,8-diazabicyclo[3.2.1]octan-8-yl)pyridin-2-yl)oxy)ethyl)-2-methylpiperazin-1-yl)ethoxy)isoxazol-5-yl)-3-methylbutanoyl)-4-hydroxy-N-((S)-1-(4-(4-methylthiazol-5-yl)phenyl)ethyl)pyrrolidine-2-carboxamide] | < 2.5 nM | > 75% | 
7 | Cc1ncsc1-c1ccc([C@H](C)NC(=O)[C@@H]2C[C@@H](O)CN2C(=O)[C@@H](c2cc(N3CCN(CCN4CCC(O[C@H]5C[C@H](Oc6cc(N7C8CCC7CN(c7cc(-c9ccccc9O)nnc7N)C8)ccn6)C5)CC4)CC3)no2)C(C)C)cc1 [compound 144, (2S,4R)-1-((2R)-2-(3-(4-(2-(4-((1r,3r)-3-((4-(3-(3-amino-6-(2-hydroxyphenyl)pyridazin-4-yl)-3,8-diazabicyclo[3.2.1]octan-8-yl)pyridin-2-yl)oxy)cyclobutoxy)piperidin-1-yl)ethyl)piperazin-1-yl)isoxazol-5-yl)-3-methylbutanoyl)-4-hydroxy-N-((S)-1-(4-(4-methylthiazol-5-yl)phenyl)ethyl)pyrrolidine-2-carboxamide] | < 2.5 nM | > 75% | 
8 | Cc1ncsc1-c1ccc([C@H](C)NC(=O)[C@@H]2C[C@@H](O)CN2C(=O)[C@H](c2cc(OCCOc3ccc(C(C)n4cc(-c5cc(-c6ccccc6O)nnc5N)cn4)cc3)no2)C(C)C)cc1 (stereo partly drawn) [compound 156, (2S,4R)-1-((2S)-2-(3-(2-(4-(1-(4-(3-amino-6-(2-hydroxyphenyl)pyridazin-4-yl)-1H-pyrazol-1-yl)ethyl)phenoxy)ethoxy)isoxazol-5-yl)-3-methylbutanoyl)-4-hydroxy-N-((S)-1-(4-(4-methylthiazol-5-yl)phenyl)ethyl)pyrrolidine-2-carboxamide] | > 30 nM |  | > 75%
9 | Cc1ncsc1-c1ccc([C@H](C)NC(=O)[C@@H]2C[C@@H](O)CN2C(=O)[C@H](c2cc(OCCn3cc(C(C)n4cc(-c5cc(-c6ccccc6O)nnc5N)cn4)ccc3=O)no2)C(C)C)cc1 (stereo partly drawn) [compound 157, (2S,4R)-1-((2S)-2-(3-(2-(5-(1-(4-(3-amino-6-(2-hydroxyphenyl)pyridazin-4-yl)-1H-pyrazol-1-yl)ethyl)-2-oxopyridin-1(2H)-yl)ethoxy)isoxazol-5-yl)-3-methylbutanoyl)-4-hydroxy-N-((S)-1-(4-(4-methylthiazol-5-yl)phenyl)ethyl)pyrrolidine-2-carboxamide] | 10 to 30 nM |  | > 75%
10 | Cc1ncsc1-c1ccc([C@H](CO)NC(=O)[C@@H]2C[C@@H](O)CN2C(=O)[C@H](c2cc(OCCN3CCN(CCOc4cc(N5C6CCC5CN(c5cc(-c7ccccc7O)nnc5N)C6)ccn4)CC3)no2)C(C)C)cc1 [compound 158, (2S,4R)-1-((2S)-2-(3-(2-(4-(2-((4-(3-(3-amino-6-(2-hydroxyphenyl)pyridazin-4-yl)-3,8-diazabicyclo[3.2.1]octan-8-yl)pyridin-2-yl)oxy)ethyl)piperazin-1-yl)ethoxy)isoxazol-5-yl)-3-methylbutanoyl)-4-hydroxy-N-((R)-2-hydroxy-1-(4-(4-methylthiazol-5-yl)phenyl)ethyl)pyrrolidine-2-carboxamide] | > 30 nM |  | > 75%
11 | CC(C)[C@H](C(=O)N1C[C@H](O)C[C@H]1C(=O)N[C@@H](C)c1ccc(-c2nccn2C)cc1)c1cc(OCCN2CCN(CCOc3cc(N4C5CCC4CN(c4cc(-c6ccccc6O)nnc4N)C5)ccn3)CC2)no1 [compound 159, (2S,4R)-1-((2S)-2-(3-(2-(4-(2-((4-(3-(3-amino-6-(2-hydroxyphenyl)pyridazin-4-yl)-3,8-diazabicyclo[3.2.1]octan-8-yl)pyridin-2-yl)oxy)ethyl)piperazin-1-yl)ethoxy)isoxazol-5-yl)-3-methylbutanoyl)-4-hydroxy-N-((S)-1-(4-(1-methyl-1H-imidazol-2-yl)phenyl)ethyl)pyrrolidine-2-carboxamide] | > 30 nM |  | < 50%
12 | Cc1ncsc1-c1ccc([C@H](C)NC(=O)[C@@H]2C[C@@H](O)CN2C(=O)[C@H](c2cc(OCCN3CCN(CCOc4cc(N5C6CCC5CN(c5cc(-c7ccccc7O)nnc5N)C6)ccn4)CC3)no2)C(C)C)cn1 [compound 160, (2S,4R)-1-((2S)-2-(3-(2-(4-(2-((4-(3-(3-amino-6-(2-hydroxyphenyl)pyridazin-4-yl)-3,8-diazabicyclo[3.2.1]octan-8-yl)pyridin-2-yl)oxy)ethyl)piperazin-1-yl)ethoxy)isoxazol-5-yl)-3-methylbutanoyl)-4-hydroxy-N-((S)-1-(6-(4-methylthiazol-5-yl)pyridin-3-yl)ethyl)pyrrolidine-2-carboxamide] | > 30 nM |  | > 75%
13 | Cc1ncoc1-c1ccc([C@H](C)NC(=O)[C@@H]2C[C@@H](O)CN2C(=O)[C@H](c2cc(OCCN3CCN(CCOc4cc(N5C6CCC5CN(c5cc(-c7ccccc7O)nnc5N)C6)ccn4)CC3)no2)C(C)C)cn1 [compound 161, (2S,4R)-1-((2S)-2-(3-(2-(4-(2-((4-(3-(3-amino-6-(2-hydroxyphenyl)pyridazin-4-yl)-3,8-diazabicyclo[3.2.1]octan-8-yl)pyridin-2-yl)oxy)ethyl)piperazin-1-yl)ethoxy)isoxazol-5-yl)-3-methylbutanoyl)-4-hydroxy-N-((S)-1-(6-(4-methyloxazol-5-yl)pyridin-3-yl)ethyl)pyrrolidine-2-carboxamide] | > 30 nM |  | < 50%
